Laboratory results from patent publication US8268635B2, “Methods of identifying agents that selectively activate p38 and/or NKkB signaling” (priority 2006, dated 2012).
Entries after “also recorded” stand apart in the source; their conditions may differ. Where no end group is shown, it is not given here.

Key:
ERK1/ERK2 = ERK1/ERK2 activation in neutrophils in suspension; assay type: cell-based, human; conditions: TNF, TNF70-80 15 min; PMA 100 nM 5 min
Protocol: The cells were lysed and the lysate assessed by western blot analysis for the level of dual-phosphorylated ERK1/ERK2 (top panel) and ERK2 protein (bottom panel). […] The level of myelin basic protein phosphorylation was quantitated by an Instant Imager.
Neutrophils were prepared from peripheral blood of healthy donors by a rapid single-step technique (Kumaratilake, L. M., Rathjen, D. A., Mack, P., Widmer, F., Prasertsiriroj, V., and Ferrante, A. (1995) J. Clin. Invest. 95: 2315-2323) using Hypaque-Ficoll and according to the institution's guidelines on human ethics. […]
KHS (hereon referred to as “GCKR”) activity was assayed as described previously using myelin basic protein as a substrate (Shi, C. S., Leonardi, A., Kyriakis, J., Siebenlist, U., and Kerhl, J. H. (1999) J. Immunol. 163: 3279-3285). ASK-1 activation was determined in immunoprecipitates of ASK-1 by autophosphorylation (Kyriakis, J. M., and Auruch, J. (2001) Physiol. Rev. 81: 807-869). p38 and ERK activities were determined as described using myelin basic protein as a substrate (Hii, C. S., Huang, Z. H., Bilney, A., Costabile, M., Murray, A. W., Rathjen, D. A., Der, C. J., and Ferrante, A. (1998) J. Biol. Chem. 273: 19277-19282). […]

E-selectin = E-selectin expression on endothelial cells; assay type: cell-based, human; conditions: TNF 100 or 1000 U/ml, TNF70-80 1-50 μM; data not presented
p38 = p38 activation in 70Z/3 cells transfected with hTNFR1 constructs; assay type: cell-based, mouse
Protocol: The cells were then lysed, protein contents quantified and subjected to p38 kinase assay by Western blot. The results are presented as the mean+−sem of 3 experiments.
The cells were maintained in RPMI-1640 medium with 4.5 g/L glucose, 2 mM L-glutamine, […] 2-mercaptoethanol and 10% FCS in an atmosphere of 95% air and 5% CO2. Cells were plated onto 10 cm plates at 4×10^7 cells in 15 ml culture medium. Before performing transient transfection, plasmid DNA (hTNFR1), kindly provided by Dr M. Kronke, Institute of Medical Microbiology and Hygiene, Medical Center University of Cologne, Koln, Germany (Adam, D., Wiegmann, K., Adam-Klages, S., Ruff A., and Kronke, M. (1996) J. Biol. Chem. 271: 14617-22), (20 μg in 1 ml of RPMI1640) was mixed with LipofectAMINE 2000 (Invitrogen) (60 μl in 1 ml of RPMI) and the mixture were left at room temperature for 20 min. The mixture was directly added to the cells and incubated for 24 h. The cells were washed twice with HBSS before use.

For PSTHVLITHTI-OH [TNF70-80], the “activity/dual phosphorylation of ERK in neutrophils in suspension” value (ERK1/ERK2) was “neither TNF nor TNF70-80 stimulated the activity of either JNK or ERK”, the “expression of E-selectin on endothelial cells” value (E-selectin) was “but not TNF70-80 (1-50 μM) stimulated the expression of E-selectin” and the “p38 activity in 70Z cells transfected with an empty vector” value (p38) was “did not stimulate the activity of p38”. The “p38 activity in 70Z cells, TNF receptor with C1-C3 deleted” value (p38) was “still able to stimulate p38 activity”, the “p38 activity in 70Z cells, TNF receptor with C1-C4 deleted” value (p38) was “retained its ability to stimulate p38 activity” and the “p38 activity in 70Z cells, TNF receptor with C1 domain deleted” value (p38) was “able to stimulate the activity of p38”. The “p38 activation in 70Z/3 cells transfected with wild type hTNFR1” value (p38; 5 min, TNF 1000 U/ml, peptides 10 μM) was “caused the activation of p38; also recorded: stimulated the activity of p38 in cells transfected with wild type receptors” and the “p38 activation in non-transfected 70Z/3 cells” value (p38; cells lacking TNFR, 5 min, TNF 1000 U/ml, peptides 10 μM) was “neither TNF nor TNF70-80 activated p38”.
